The test system of test [1] is Bone marrow-derived DCs from wild-type (WT) mice. Put plainly: Stimulation of bone marrow dendritic cells from wild-type mice (IL-6 ELISA, surface activation markers). The class given is cell-based, mouse. As to conditions: WT BMDCs, plate-bound LPS (1 μg), MMP (10 μg) or PE DHC (2.5 μg), supernatants after 18 hrs. How it is done: (§1) Bone marrow cells from C57BL/6 and TLR2^−/− mice were cultured at 2×10^5 cells/ml in RPMI containing 10% FCS, 2-ME, and 20 ng/ml recombinant murine GM-CSF for 9 days. Bone marrow DCs (BMDCs) were harvested at Day 9 and were greater than 80% CD11c+. LPS (1 μg), MMP (10 μg) (a bacterial lipoprotein and known TLR-2 ligand: Palmitoyl-Cys ((RS)-2,3-di(palmitoyloxy)-propyl)-Ser-Ser-Asn-Ala-OH(pam3-Cys-Ser-Ser Asn-Ala-OH) (Bachem H-9460), PE DHC (2.5 μg) or 70% EtOH, all in 20 ul volumes, were allowed to dry in the wells of a 24-well plate overnight prior to the addition of BMDCs. BMDCs were cultured in the ligand-bound 24-well plates at 1×10^6 cells/ml in RPMI containing GM-CSF. After 18 hrs, culture supernatants were harvested and tested for IL-6 via ELISA.
(§2) The effects of PE DHC on antigen presenting cell (APC) activation in vitro were examined. Dendritic cells (BMDCs) (>85% CD11c+) were derived from the bone marrow of WT or TLR2^−/− mice and cultured either alone or with EtOH, LPS, MMP (a TLR2 ligand), or PE DHC. After 18 Ins supernatants were assayed for IL-6. […] BMDCs were also assayed for expression of the surface activation markers B7.2 and MHC class II.
Background: ELISA stands for enzyme-linked immunosorbent assay.

In test [2] the test system is Bone marrow-derived DCs from TLR2^−/− mice. Put plainly: Stimulation of bone marrow dendritic cells from TLR2^−/− mice (IL-6 ELISA, surface activation markers). As to conditions: TLR2^−/− BMDCs, plate-bound LPS (1 μg), MMP (10 μg) or PE DHC (2.5 μg), supernatants after 18 hrs. The class given is cell-based, mouse. How it is done: as §1, §2

* marks the point of attachment. Palmitoyl = CCCCCCCCCCCCCCCC(=O)*

Consider “Palmitoyl-Cys ((RS)-2,3-di(palmitoyloxy)-propyl)-Ser-Ser-Asn-Ala-OH ({Palmitoyl-Cys((RS)-2,3-di(palmitoyloxy)-propyl)}-SSNA-OH) [MMP, a bacterial lipoprotein and known TLR-2 ligand (Bachem H-9460)]”, for which the IL-6 secretion entry is “resulted in IL-6 secretion” in test [1] and “did not” in test [2].

Values taken from US20130216553A1, “Compositions and Methods for Modulation and Detection of Immune and Inflammatory Responses” (priority 2010, published 2013).
